Here are results for six compounds from patent US4898936A, “2-deoxyuridines and riboside precursors” (priority 1985, dated 1990).

Broadly, the ED50 is the dose that gives a 50% effect, or the effect in half of the subjects. The low end stands for an effect at a small dose, the high end for a need for a large dose.

The subject of data set [1] is Sarcoma 180. Conditions: cited from earlier work; for Antitumor activity value (A): Administration amount of test compound, at which tumor enhancement is inhibited by 50% compared with that of control group: oral, once a day for 7 consecutive days, tumor weight on tenth day, Sarcoma 180, mice, 14400 min.
The format of data set [2] is in vivo. The conditions noted are these: lethal dose, administered orally; + Test animals alive at indicated dose. The protocol: (§1) The effective dose and the lethal dose has been determined as follows:
The dosage is administered

Data set [3] has as its system Sarcoma 180. In kind it is in vivo, mouse (male ICR/JCL-strain). Conditions: toxicity value (B) / antitumor activity value (A); oral, mice. The protocol: (c) Calculation of therapeutic index
By the use of the antitumor activity value (hereinafter referred to as A) and the toxicity value (hereinafter referred to as B) of each compound, which were obtained in the above items (a) and (b), respectively, therapeutic index (hereinafer referred to as C) was calculated in accordance with the following equation: […]
Pharmacological tests-(Continued) [formula]

Data set [4] relates to Sarcoma 180. Briefly: Antitumor activity in mice against Sarcoma 180 (effective dose). In kind it is in vivo. The conditions noted are these: Sarcoma 180, mice; for ED50: Mus musculus, po, effective dose, administered orally. The protocol:
as §1
^+ Test animals alive at indicated dose. The dosage is administered

Data set [5] concerns Sarcoma 180. Briefly: Comparison of activities of antitumor agents on Sarcoma 180 in mice (50% tumor regression). The conditions noted are these: Mus musculus. In kind it is in vivo. The source says:
In comparison with the activities of other antitumor agents on Sarcoma 180 in mice, the following results were obtained: […]

The conditions of data set [6]: cited from earlier work; for Toxicity value (B): Administration amount of test compound at which weight increase of test animal is inhibited by 50% compared with that of control group: oral, once a day for 7 consecutive days, mice.
The test system of data set [7] is Sarcoma 180. Conditions: from Table 1; cited from earlier work.
The next data set in a line: Hygroscopicity. The format is physicochemical. The conditions noted are these: beta-anomer.

Where “and” joins values, the source holds several entries; their conditions need not be identical. Equal values may be shown once.

Take `O=c1[nH]c(=O)n([C@H]2C[C@H](OCc3ccccc3)[C@@H](CO)O2)cc1C(F)(F)F` [3'-O-Benzyl-2'-Deoxy-5-Trifluoromethyluridine]: the “antitumor activity compared with F3 TdR and FudR (in words)” value in the data set on Sarcoma 180 [1] (from Table 1) is on record as “far superior to them in antitumor activity”. Moreover, the “Antitumor activity value (A): Administration amount of test compound, at which tumor enhancement is inhibited by 50% compared with that of control group” value with Sarcoma 180 [1] is 17 mg/kg/day. For the same compound, the LD10 in data set [2] is 80 mg/kg. Also, in the data set on Sarcoma 180 [3], the “Therapeutic Index (C) = (B)/(A)” value was 1.88. Also, in the data set on Sarcoma 180 [4], the ED50 worked out at 14 mg/kg and the “antitumor activity in mice against Sarcoma 180 (in words)” value is “show antitumor activity in mice against Sarcoma 180”. This compound also came in with an ED50 with Sarcoma 180 [5] of 14 mg/kg. Further, in data set [6] (from Table 1), the “toxicity compared with F3 TdR and FudR (in words)” value was “equal or superior to F3 TdR and FudR in toxicity”. Also, in data set [6], the “Toxicity value (B): Administration amount of test compound at which weight increase of test animal is inhibited by 50% compared with that of control group” value was 32 mg/kg/day. In addition, in the data set on Sarcoma 180 [7], the “usefulness when compared in therapeutic index (in words)” value is reported as “especially useful”.

Take `O=c1[nH]c(=O)n([C@H]2C[C@H](OCc3ccccc3)[C@@H](CO)O2)cc1F` [3'-O-Benzyl-2'-deoxy-5-fluorouridine, 3'-O-Benzyl-2'-Deoxy-5-Fluorouridine]: the “Antitumor activity value (A): Administration amount of test compound, at which tumor enhancement is inhibited by 50% compared with that of control group” value in the data set on Sarcoma 180 [1] is 17 mg/kg/day. For the same compound, the “Therapeutic Index (C) = (B)/(A)” value in the data set on Sarcoma 180 [3] is given as 2.06. Further, the “antitumor activity in mice against Sarcoma 180 (in words)” value in the data set on Sarcoma 180 [4] is given as “show antitumor activity in mice against Sarcoma 180”. Further, the hygroscopicity entry in “Hygroscopicity” was “not hygroscopic”. In addition, the “Toxicity value (B): Administration amount of test compound at which weight increase of test animal is inhibited by 50% compared with that of control group” value in data set [6] was 35 mg/kg/day. In addition, the “usefulness when compared in therapeutic index (in words)” value with Sarcoma 180 [7] is listed as “especially useful”.

Regarding `O=c1[nH]c(=O)n([C@H]2C[C@H](O)[C@@H](CO)O2)cc1F` [FudR, 2'-deoxy-5-fluorouridine, reference compound], the “Antitumor activity value (A): Administration amount of test compound, at which tumor enhancement is inhibited by 50% compared with that of control group” value in the data set on Sarcoma 180 [1] was 93 mg/kg/day. In the data set with Sarcoma 180 [3], the “Therapeutic Index (C) = (B)/(A)” value was 0.76. For the same compound, in data set [6], the “Toxicity value (B): Administration amount of test compound at which weight increase of test animal is inhibited by 50% compared with that of control group” value was 71 mg/kg/day.

`O=c1[nH]c(=O)n([C@H]2C[C@H](O)[C@@H](CO)O2)cc1C(F)(F)F` [F3 TdR, 2'-deoxy-5-trifluoromethyluridine, reference compound]: the “Antitumor activity value (A): Administration amount of test compound, at which tumor enhancement is inhibited by 50% compared with that of control group” value in the data set on Sarcoma 180 [1] is 68 mg/kg/day and 58 mg/kg/day. Moreover, the median effective dose (ED50) in the data set with Sarcoma 180 [4] was 75 mg/kg; in the data set with Sarcoma 180 [5], 60 to 80 mg/kg. The “Toxicity value (B): Administration amount of test compound at which weight increase of test animal is inhibited by 50% compared with that of control group” value in data set [6] was 49 mg/kg/day and 40 mg/kg/day.

`Nc1nc(=O)n([C@H]2C[C@H](O)[C@@H](CO)O2)cc1C(F)(F)F` [CF3 dC, 5-Trifluoromethyl-2deoxycytidine] returned an ED50 in the data set on Sarcoma 180 [5] of 60 to 80 mg/kg.

`O=c1[nH]c(=O)n(C2CCCO2)cc1F` (stereo not shown) [Ftorafur]: the ED50 in the data set with Sarcoma 180 [5] is 120 mg/kg.
